Values quoted from earlier work, collected in patent US20020052320A1, “Sustained peptide-release formulation” (Peptech Limited, priority 1996, published 2002).

Tests used:
[1] = tested on: advanced prostatic cancer; details: monthly subcutaneous injections
[2] = tested on: prostate cancer in rats; details: controlled dose over 30 days vs equivalent or double doses of free peptide

SMILES	efficacy compared with orchiectomy [1]	tolerability [1]	suppression of prostate tumour weight, microencapsulated form vs daily subcutaneous free peptide [2]	suppression of serum testosterone levels, microencapsulated form vs daily subcutaneous free peptide [2]
CC(C)C[C@H](NC(=O)[C@@H](COC(C)(C)C)NC(=O)[C@H](Cc1ccc(O)cc1)NC(=O)[C@H](CO)NC(=O)[C@H](Cc1c[nH]c2ccccc12)NC(=O)[C@H](Cc1cnc[nH]1)NC(=O)[C@@H]1CCC(=O)N1)C(=O)N[C@@H](CCCNC(=N)N)C(=O)N1CCC[C@H]1C(=O)NNC(N)=O [goserelin, 3-[5-oxo-L-prolyl-L-tryptophyl-L-seryl-L-tyrosyl-(3-O-tert-butyl)-D-seryl-L-1eucyl-L-arginyl-L-prolyl]cabazamide acetate]	as effective as orchiectomy	well tolerated		
CC(C)C[C@H](NC(=O)[C@@H](Cc1c[nH]c2ccccc12)NC(=O)[C@H](Cc1ccc(O)cc1)NC(=O)[C@H](CO)NC(=O)[C@H](Cc1c[nH]c2ccccc12)NC(=O)[C@H](Cc1c[nH]cn1)NC(=O)[C@@H]1CCC(=O)N1)C(=O)N[C@@H](CCCNC(=N)N)C(=O)N1CCC[C@H]1C(=O)NCC(N)=O [triptorelin, 5-oxo-L-prolyl-L-histidyl-L-tryptophyl-L-seryl-L-tyrosyl-D-tryptophyl-L-leucyl-L-arginyl-L-prolylglycinamide]			more effective	more effective
